Results: US20080132538A1, “Pharmaceutical uses for fluoroalkoxybenzylamino derivatives of nitrogen containing heterocycles” (Pfizer Inc, priority 2000, published 2008)

How the values were obtained:
[1] = test system: CCR5 receptors; conditions: Proc. Nat'l. Acad. Sci., 98 (7), p3970; cited from earlier work

| SMILES | melting point | effect on CCR5 receptors [1] |
| --- | --- | --- |
| CC(C)c1ccc(OCC(F)(F)F)c(CN[C@H]2CCCN[C@H]2c2ccccc2)c1.Cl | > 280 °C | – |
| CC(=O)Nc1ccc(OCC(F)(F)F)c(CN[C@H]2CCCN[C@H]2c2ccccc2)c1.Cl | > 270 °C | – |
| COc1ccccc1CN[C@H]1C2CCN(CC2)[C@H]1C(c1ccccc1)c1ccccc1 [CP-96,345] | – | down regulates CCR5 receptors |
| CC(C)c1ccc(OC(F)F)c(CN[C@H]2CCCN[C@H]2c2ccccc2)c1.Cl | 245 to 247 °C (dec.) | – |
| CC(C)(C)c1ccc(OC(F)F)c(CN[C@H]2CCCN[C@H]2c2ccccc2)c1.Cl | 263 to 264 °C (dec.) | – |
| CN(C)c1ccc(OCC(F)(F)F)c(CN[C@H]2CCCN[C@H]2c2ccccc2)c1.Cl | 250 to 252 °C | – |
| Cc1ccc(OC(F)F)c(CN[C@H]2CCCN[C@H]2c2ccccc2)c1.Cl | > 275 °C | – |

The next lines start with results.

| melting point | SMILES | effect on CCR5 receptors [1] |
| --- | --- | --- |
| 238 to 239 °C | Cl.FC(F)Oc1ccc(OC(F)F)c(CN[C@H]2CCCN[C@H]2c2ccccc2)c1 | – |
| 231 to 233 °C | Cl.FC(F)(F)Oc1ccccc1CN[C@H]1CCCN[C@H]1c1ccccc1 | – |
| 245 to 246 °C (dec.) | CC(C)Oc1ccc(OC(F)(F)F)cc1CN[C@H]1CCCN[C@H]1c1ccccc1.Cl | – |
| 262 to 264 °C | CC(C)(C)c1ccc(OC(F)(F)F)c(CN[C@H]2CCCN[C@H]2c2ccccc2)c1.Cl | – |
| > 275 °C (dec.) | CCOc1ccc(OC(F)(F)F)cc1CN[C@H]1CCCN[C@H]1c1ccccc1.Cl | – |
